This is an account of results in PubChem BioAssay AID588598 (Sanford-Burnham Center for Chemical Genomics, 2011).

The target of the experiment is Sentrin-specific protease 6 (Homo sapiens) (UniProt Q9GZR1). Kind of experiment: SENP6 protease inhibitors, SAR follow-up, biochemical, luminescence, set 2 (AID 588598). The following applies: recombinant SENP6, Z-RLRGG-aminoluciferin cleavage, 30 min.
Chain of Sentrin-specific protease 6 (Homo sapiens) (Q9GZR1 628-1112 limits assumed): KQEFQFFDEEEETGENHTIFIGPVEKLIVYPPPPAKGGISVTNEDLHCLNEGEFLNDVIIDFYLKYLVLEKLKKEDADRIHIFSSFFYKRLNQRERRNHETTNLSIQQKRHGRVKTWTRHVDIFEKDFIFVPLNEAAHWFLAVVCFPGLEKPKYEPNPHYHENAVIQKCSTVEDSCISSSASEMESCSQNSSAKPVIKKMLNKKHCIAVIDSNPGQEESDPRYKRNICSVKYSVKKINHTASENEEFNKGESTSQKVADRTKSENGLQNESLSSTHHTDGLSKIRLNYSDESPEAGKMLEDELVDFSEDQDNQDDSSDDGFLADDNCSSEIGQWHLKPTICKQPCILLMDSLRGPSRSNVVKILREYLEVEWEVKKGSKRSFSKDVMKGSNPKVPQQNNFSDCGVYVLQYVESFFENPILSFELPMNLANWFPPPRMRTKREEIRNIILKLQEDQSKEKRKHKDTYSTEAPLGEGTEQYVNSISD

In the case of `O=C(Nc1nc2ccc(Cl)cc2s1)c1cccs1`, the IC50 (commonly the concentration that inhibits the measured activity by half) is 1.3 µM.
